{"source": "patent US7226619B1", "about": "“Material for controlling diversion of medications” (PharmoRx Inc., priority 2004, dated 2007)", "origin": "cited, not measured here", "key": {"[1]": {"target": "2D6 component of the P450 metabolic system (Homo sapiens, UniProt P10635)", "sequence (P10635 whole entry)": "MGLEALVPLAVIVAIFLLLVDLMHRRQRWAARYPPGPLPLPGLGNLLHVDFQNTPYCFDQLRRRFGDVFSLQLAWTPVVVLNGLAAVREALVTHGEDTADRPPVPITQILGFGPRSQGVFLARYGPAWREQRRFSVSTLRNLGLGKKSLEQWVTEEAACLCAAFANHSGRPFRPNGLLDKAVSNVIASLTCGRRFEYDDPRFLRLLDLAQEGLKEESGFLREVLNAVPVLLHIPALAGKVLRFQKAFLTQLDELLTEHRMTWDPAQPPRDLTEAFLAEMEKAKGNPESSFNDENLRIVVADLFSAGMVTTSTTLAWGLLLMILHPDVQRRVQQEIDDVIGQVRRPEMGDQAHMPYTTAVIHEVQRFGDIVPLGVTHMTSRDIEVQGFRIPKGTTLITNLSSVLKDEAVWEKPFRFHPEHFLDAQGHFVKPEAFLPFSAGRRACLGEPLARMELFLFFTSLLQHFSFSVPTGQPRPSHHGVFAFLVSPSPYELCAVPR"}, "[2]": {"settings": "oxymorphone vs parent oxycodone; per Richard B. Patt, American Pain Society Bulletin 6(4), 1996"}}, "note": "Like-named read-outs stand apart in the source and are kept apart here.", "data": [{"smiles": "CN/C(=N/CCSCc1nc[nH]c1C)NC#N", "note": "[cimetidine]", "values": [{"measurement": "inhibitor of 2D6 (in words)", "setting": "[1]", "value": "strong inhibitors"}]}, {"smiles": "CN1CC[C@]23c4c5ccc(O)c4O[C@H]2C(=O)CC[C@@]3(O)[C@H]1C5", "note": "[oxymorphone]", "values": [{"measurement": "effectiveness as an agonist relative to oxycodone", "setting": "[2]", "value": "at least 10 times"}]}, {"smiles": "Fc1ccc([C@@H]2CCNC[C@H]2COc2ccc3c(c2)OCO3)cc1", "note": "[paroxetine]", "values": [{"measurement": "inhibitor of 2D6 (in words)", "setting": "[1]; qualitative statement, no data", "value": "strong inhibitors"}]}, {"smiles": "COC(=O)C1=CO[C@@H](C)[C@H]2CN3CCc4c([nH]c5ccccc45)[C@@H]3C[C@H]12", "note": "[ajmalicine]", "values": [{"measurement": "inhibitor of 2D6 (in words)", "setting": "[1]; qualitative statement, no data", "value": "strong inhibitors"}]}, {"smiles": "COc1ccc(CN(CCN(C)C)c2ccccn2)cc1", "note": "[mepyramine]", "values": [{"measurement": "inhibitor of 2D6 (in words)", "setting": "[1]", "value": "strong inhibitors"}]}, {"smiles": "COC(=O)[C@H]1[C@H]2C[C@@H]3c4[nH]c5cc(OC)ccc5c4CCN3C[C@H]2C[C@@H](OC(=O)c2cc(OC)c(OC)c(OC)c2)[C@@H]1OC", "note": "[reserpine]", "values": [{"measurement": "inhibitor of 2D6 (in words)", "setting": "[1]", "value": "strong inhibitors"}]}, {"smiles": "C=C[C@H]1C[N@@]2CC[C@H]1C[C@@H]2[C@@H](O)c1ccnc2ccc(OC)cc12", "note": "[quinidine]", "values": [{"measurement": "inhibitor of 2D6 (in words)", "setting": "[1]; qualitative statement, no data", "value": "strong inhibitors"}]}]}
